Usually Vmax stands for the rate approached at saturating substrate. As a reminder, the Km is the substrate concentration at which the rate is half of its maximum. What is called kcat is the maximal rate divided by the concentration of active sites. As a reminder, the kcat/Km is the turnover number divided by the Michaelis constant.

We go through three compounds from US10865390B2, “Alcohol dehydrogenase mutant and application thereof in synthesis of diaryl chiral alcohols” (Jiangnan University, priority 2018, dated 2020).

Holding throughout (type): biochemical
Data set [1] addresses T1, alcohol dehydrogenase KpADH mutant M5 (E214G/S237C/Q136N/S196G of SEQ ID No. 2) (Vanderwaltozyma polyspora, UniProt A7TM80, E214G/Q136N/S196G/S237C).
T1 construct: mutant M5
Description: Kinetic analysis of KpADH mutant M5 with CPMK. The settings on record: NADPH, pH 7.0, 30° C. Here is the method:
In an embodiment of the present disclosure, the mutant includes the substitution of glycine for glutamic acid at position 214 of the amino acid sequence shown in SEQ ID No. 2, the substitution of cysteine for serine at position 237, the substitution of asparaginate for glutamine at position 136, and the substitution of glycine for serine at position 196, which is named M5.
(§1) Adopting a total reaction system of 200 μL including: 1.0 mM NADPH, 1.0 mM substrate CPMK and sodium phosphate buffer (PBS, 100 mM, pH 7.0), fully and evenly mixing, maintaining at 30° C. for 2 min, adding an appropriate amount of enzyme solution, and detecting the change in light absorption at 340 nm.
(§2) The enzyme activity was calculated by the following formula: Enzyme activity (U)=EW×V×10^3/(6220×1);
(§3) in the formula, EW is the change in absorbance at 340 nm in 1 min; V is the volume of a reaction solution in mL; 6220 is the molar extinction coefficient of NADPH in L/(mol·cm); and 1 is the optical path distance in cm. One activity unit (U) corresponds to the amount of enzyme required to catalyze the oxidation of 1 μmol NADPH per minute under the above conditions. […]
(§4) The activity of KpADH at different substrate concentrations and coenzyme concentrations was determined, and a double reciprocal curve was made based on the reciprocal of activity and substrate concentration to calculate kinetic parameters.

Data set [2] has as its target T2, alcohol dehydrogenase KpADH, wild type, SEQ ID No. 2 (Vanderwaltozyma polyspora, UniProt A7TM80).
T2 sequence (A7TM80 1-342): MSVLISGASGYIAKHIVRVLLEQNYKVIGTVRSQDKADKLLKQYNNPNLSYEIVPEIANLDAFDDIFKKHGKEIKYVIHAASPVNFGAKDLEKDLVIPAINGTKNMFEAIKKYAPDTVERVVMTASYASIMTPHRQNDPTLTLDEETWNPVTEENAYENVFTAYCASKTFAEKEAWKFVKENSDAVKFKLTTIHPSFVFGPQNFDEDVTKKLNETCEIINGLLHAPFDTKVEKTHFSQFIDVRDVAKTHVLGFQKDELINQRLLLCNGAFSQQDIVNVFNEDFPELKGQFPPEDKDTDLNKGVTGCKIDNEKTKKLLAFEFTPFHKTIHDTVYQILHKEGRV
The data set is described as follows: Kinetic analysis of KpADH wild type with CPMK. Particulars: NADPH, pH 7.0, 30° C. On the procedure: as §1, §2
(§5) in the formula, EW is the change in absorbance at 340 nm in 1 min; V is the volume of a reaction solution in mL; 6220 is the molar extinction coefficient of NADPH in L/(mol·cm); and 1 is the optical path distance in cm. One activity unit (U) corresponds to the amount of enzyme required to catalyze the oxidation of 1 μmol NADPH per minute under the above conditions.
(§6) A column used for purification was a nickel affinity column HisTrap FF crude, and purification was achieved through affinity chromatography using a histidine tag on recombinant protein. The nickel column was equilibrated with a solution A first, a crude enzyme solution was loaded, a penetrating peak was further eluted off using the solution A, and after equilibrium, a solution B (20 mM sodium phosphate, 500 mM NaCl, and 1000 mM imidazole, pH 7.4) was used for gradient elution to elute off the recombinant protein bound to the nickel column, so as to obtain the recombinant alcohol dehydrogenase mutant. The purified protein was subjected to activity measurement (CPMK as substrate, and NADPH as coenzyme) and SDS-PAGE analysis. […] The purified alcohol dehydrogenase protein was then replaced into a Tris-HCl (100 mM, pH 7.0) buffer using a Hi Trap Desalting column (GE Healthcare).
as §4

Data set [3] has as its target T3, alcohol dehydrogenase KpADH mutant M8 (Q136N/F161V of SEQ ID No. 1) (Vanderwaltozyma polyspora, UniProt A7TM80, F161V/Q136N).
T3 construct: control mutant M8
Description: Kinetic analysis of KpADH mutant M8 (control example) with CPMK. Particulars: NADPH, pH 7.0, 30° C. On the procedure: In an embodiment of the present disclosure, the mutant includes the substitution of asparaginate for glutamine at position 136 of alcohol dehydrogenase with an amino acid sequence shown in SEQ ID No. 1, and the substitution of valine for phenylalanine at position 161, which is named M8.
as §1, §2, §3, §4

Data set [4] has as its target T4, alcohol dehydrogenase KpADH mutant M7 (E214V/T215S of SEQ ID No. 2) (Vanderwaltozyma polyspora, UniProt A7TM80, E214V/T215S).
T4 construct: mutant M7
Description: Kinetic analysis of KpADH mutant M7 with CPMK. The settings on record: NADPH, pH 7.0, 30° C. On the procedure: In an embodiment of the present disclosure, the mutant includes the substitution of valine for glutamic acid at position 214 of the amino acid sequence shown in SEQ ID No. 2, and the substitution of serine for threonine at position 215, which is named M7.
as §1, §2, §3, §4

Data set [5] addresses T5, alcohol dehydrogenase KpADH mutant M9 (S196G/S237C of SEQ ID No. 1) (Vanderwaltozyma polyspora, UniProt A7TM80, S196G/S237C).
T5 construct: control mutant M9
The data set is described as follows: Kinetic analysis of KpADH mutant M9 (control example) with CPMK. The settings on record: NADPH, pH 7.0, 30° C. Here is the method:
In an embodiment of the present disclosure, the mutant includes the substitution of glycine for serine at position 196 of the alcohol dehydrogenase with the amino acid sequence shown in SEQ ID No. 1, and the substitution of cysteine for serine at position 237, which is named M9.
as §1, §2, §3, §4

Data set [6] deals with O=C(c1ccc(Cl)cc1)c1ccccn1. Description: Kinetic analysis of KpADH mutant M1 with CPMK. The settings on record: other: M1, NADPH, pH 7.0, 30° C. On the procedure: In an embodiment of the present disclosure, the mutant includes the substitution of glycine for glutamic acid at position 214 of the alcohol dehydrogenase with the amino acid sequence shown in SEQ ID No. 2, which is named M1.
as §1, §2, §5, §6, §4

Data set [7] has as its system O=C(c1ccc(Cl)cc1)c1ccccn1. Description: Kinetic analysis of KpADH mutant M6 with CPMK. Particulars: other: M6, NADPH, pH 7.0, 30° C. Here is the method:
In an embodiment of the present disclosure, the mutant includes the substitution of glycine for glutamic acid at position 214 of the amino acid sequence shown in SEQ ID No. 2, the substitution of cysteine for serine at position 237, the substitution of asparaginate for glutamine at position 136, the substitution of glycine for serine at position 196, and the substitution of valine for phenylalanine at position 161, which is named M6.
as §1, §2, §5, §6, §4

Take `O=C(c1ccc(Cl)cc1)c1ccccn1` [CPMK, (4-chlorophenyl)-(pyridin-2-yl)-methanone]: the Kcat in data set [1] worked out at 17.0 s⁻¹; in data set [2] it was 11.8 s⁻¹; in data set [3] it was 14.8 s⁻¹; in data set [4] it was 14.2 s⁻¹; in data set [5], 17.6 s⁻¹. Moreover, the Vmax in data set [1] turned out to be 21.3 µmol/min/mg; in data set [2] it was 17.9 µmol/min/mg; in data set [3] it was 22.3 µmol/min/mg; in data set [4] it was 21.3 µmol/min/mg; in data set [5], 26.5 µmol/min/mg. The Km in data set [2] was determined as 410 µM.

Turning to “alcohol dehydrogenase KpADH mutant M1 (E214G of SEQ ID No. 2) (Vanderwaltozyma polyspora DSM 70294; E214G)”, in data set [6], the Km came out at 520 µM, the Vmax was 11.1 µmol/min/mg, the kcat was found to be 7.32 s⁻¹ and the kcat/Km came out at 14100 M⁻¹ s⁻¹.

In the case of “alcohol dehydrogenase KpADH mutant M6 (E214G/S237C/Q136N/S196G/F161V of SEQ ID No. 2) (Vanderwaltozyma polyspora DSM 70294; E214G/F161V/Q136N/S196G/S237C)”, in data set [7], the Km was 1120 µM, the Vmax turned out to be 25.2 µmol/min/mg, the kcat is 20.1 s⁻¹ and the kcat/Km worked out at 17900 M⁻¹ s⁻¹.
